Source: article PMC8062851, “2-Methoxyestradiol and its derivatives inhibit store-operated Ca^2+ entry in T cells: Identification of a new and potent inhibitor” (Biochimica et Biophysica Acta. Molecular Cell Research, 2021)
“Also recorded” adds a separate entry of the source.

How the values were obtained:
TMBP cells = experiment: In vitro activation of TMBP cells by MBP, cytokine mRNA by qPCR; assay type: cell-based, rat; settings: TMBP cells + MBP; 6 h; qPCR; STX564 vs Synta66
Description: Myelin basic protein (MBP)-reactive CD4^+ T cells retrovirally transduced to express enhanced GFP (TMBP cells) were established as previously reported. In brief, 6–8 week old female Lewis rats were immunized subcutaneously with 150 μl of emulsion consisting of equal parts of MBP (stock concentration: 1 mg/ml) and complete Freund's adjuvant containing heat-inactivated Mycobacterium tuberculosis extract (Difco; stock concentration: 2 mg/ml). Draining lymph nodes were harvested and passed through a cell strainer (40 μm) 9–10 days after immunization. The cell suspension was co-cultured with GP + E86 packaging cell lines producing replication-deficient retroviruses in the presence of 10 μg/ml MBP. Murine IL-2 was added to the culture for T cell expansion from day 2–4 after stimulation. The cell lines underwent 3–4 cycles of stimulation before being used for in vitro and in vivo experiments. […] Upon stimulation, they produced interferon-γ and IL-17.
In vitro activation assays were performed in 96-well plates. […]. TMBP cell activation on mRNA level was determined using qPCR and on surface protein level using surface marker staining and subsequent flow cytometry analysis.
Total RNA was isolated using the standard TRIzol method. cDNA was synthesized using the RevertAid First Strand cDNA Synthesis Kit (Thermo Fisher Scientific). Quantitative PCR (qPCR) was performed using the StepOnePlus™ Real-Time PCR System (Applied Biosystems), as previously described [[23], [24], [25]]. Rat TMBP cell data were obtained from three to four independent duplicate measurements. β-actin served as housekeeping gene. Human PBMC data were obtained from two independent healthy donors and duplicate measurements (representative data of one donor are shown). HPRT served as housekeeping gene. For all probes (TaqMan), a combination of 5′-FAM and 3′-TAMRA quencher was used as described.

SERCA pumps = experiment: SERCA activity (ATP-induced Ca2+ reuptake) in permeabilized Jurkat T cells; assay type: cell-based, human
Description: (§1) 3 ∗ 10^7 Jurkat T-lymphocytes per measurement were centrifuged at 450 ×g for 5 min at room temperature. The pellet was rinsed twice, each time using 10 ml permeabilization buffer 1 (120 mM KCl, 10 mM NaCl, 1.2 mM MgCl2, 0.533 mM CaCl2, 1 mM EGTA and 10 mM HEPES, pH 7.2 (KOH), sterile filtered). Subsequently, the pellet was resuspended in 2 ml permeabilization buffer 1 containing 80 μg/ml saponin (Fluka) and the cells were incubated for 10 min at 37 °C. Subsequently, the cells were centrifuged at 450 ×g for 5 min at room temperature and the cell pellet was washed once in 10 ml permeabilization buffer 2 (120 mM KCl, 10 mM NaCl, 1.2 mM MgCl2 and 10 mM HEPES, pH 7.2 (KOH), sterile filtered). Finally, the cells were taken up in 1 ml permeabilization buffer 2, placed into a cuvette and measured at the fluorescence spectrophotometer. Before the start of the measurement, 0.5 μl of 1 mM Fura2 free acid (dissolved in pure water, final concentration: 0.5 μM), 5 μl of 5 mg/ml creatinkinase (dissolved in permeabilization buffer 2, final concentration: 25 μg/ml, 20 U/ml, Roche) and 10 μl of 2 M creatin phosphate (dissolved in permeabilization buffer 2, final concentration: 20 mM, Calbiochem) were added. Fura2 was used to measure the Ca^2+ concentration and creatinkinase and creatin phosphate were used as ATP-regenerating system. The measurement was controlled by FL Solutions (Version 4.1, Hitachi High-Technologies Corporation). Fura2 was alternatively excited every 2 s at 340 ± 5 nm and 380 ± 5 nm, each 400 ms apart. Fluorescence intensity was measured at an emission wavelength of 495 ± 5 nm for both excitation wavelengths. […] Ca^2+ concentrations were calculated according to Grynkiewicz et al. as described earlier in Section 2.4.
(§2) As a quantitative read-out for inhibition of IP3 receptors, the peak [Ca^2+] after IP3 addition was subtracted from the mean [Ca^2+] between 25 and 75 s before IP3 addition (dPeak). […] The rate constant K of the fitted data was used as a quantitative read-out for SERCA pump activity and its inhibition.

[1] = test system: alpha-dendrotoxin sensitive KV channels, likely KV1.1, KV1.2 and/or KV1.6; settings: 10 μM; ref Di Sabatino et al. [36]; cited from earlier work
ORAI1 = biological target: T1, ORAI1 (Homo sapiens, UniProt Q96D31); experiment: Live cell Ca2+ imaging of G-GECO1.2-ORAI1 transfected Jurkat T cells; assay type: cell-based; settings: 10 μM
T1 construct: host or cells: Jurkat T-lymphocytes (electroporation)
Description: 12.5 ∗ 10^6 Jurkat T–lymphocytes were pelleted at 400 to 450 ×g for 5 min at room temperature and pellets were dissolved in 500 μl RPMI 1640 medium (Gibco) without phenol red containing L-glutamine, supplemented with 7.5% (v/v) NCS. 30 μg plasmid-DNA (G-GECO1.2-ORAI1) was transferred into a 4 mm electroporation cuvette (Biozym, Austria) and the Jurkat T-lymphocytes were added. G-GECO1.2-ORAI1 was a gift from Michael Cahalan, USA (Addgene plasmid # 73562). After an incubation of 5 min at 37 °C, cells were electroporated with 960 μF and 240 V (τ: […]). […]
17 to 22 h after electroporation, 5 ∗ 10^4 cells were pelleted at 400–450 ×g for 5 min at room temperature and cell pellets were dissolved in 50 μl nominal Ca^2+ free buffer. […] The fluorophore was excited at 488 nm every 2 s for 30 min and fluorescence was measured at 520 nm using Volocity (Version 6.3, Perkin Elmer).
Using ImageJ (Version 1.51 k, National Institutes of Health, USA) the pictures were analyzed for mean fluorescence in the outer ring of Jurkat T-lymphocytes employing ring-shaped regions of interest (ROIs). […] The mean background fluorescence values were subtracted from the signal in every image. For quantitative analysis, fluorescence intensities were normalized to the first fluorescence intensity (F/F0).

KV1.3 channels = test system: KV1.3 channels; design: method as in patent WO2005/009954A2 (compound 66); settings: ref patent WO2005/009954A2 (compound 66); cited from earlier work
IP3 receptors = experiment: IP3-evoked Ca2+ release in permeabilized Jurkat T cells; assay type: cell-based, human; settings: 2 μM IP3
Description: as §1, §2

T1 sequence (Q96D31 whole entry): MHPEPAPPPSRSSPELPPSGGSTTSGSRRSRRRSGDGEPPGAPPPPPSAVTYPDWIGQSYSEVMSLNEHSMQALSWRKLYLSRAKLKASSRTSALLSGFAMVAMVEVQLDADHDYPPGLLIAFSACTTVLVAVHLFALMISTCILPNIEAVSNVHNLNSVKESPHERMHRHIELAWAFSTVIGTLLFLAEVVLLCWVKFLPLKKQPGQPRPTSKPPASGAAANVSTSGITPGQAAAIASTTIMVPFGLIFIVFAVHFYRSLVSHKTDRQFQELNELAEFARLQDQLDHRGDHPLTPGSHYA

COc1ccc(OC)c(-c2ccc(NC(=O)c3ccncc3F)cc2)c1 [Synta66]
concentration at which interferon-γ expression was significantly antagonized (TMBP cells): ≥ 10 µM
effect on SERCA activity (initial slope of [Ca2+] upon ATP addition) (SERCA pumps): Neither STX564, Synta66 nor vehicle DMSO affected ATP-induced Ca^2+ reuptake by SERCA pumps; also recorded: neither STX564 nor Synta66 showed any effect
inhibition of alpha-dendrotoxin sensitive KV channels [1]: < 10%
SOCE by ORAI1 (G-GECO1.2-ORAI1 fluorescence) (ORAI1): almost completely diminished
inhibition of KV1.3 channels (KV1.3 channels): inhibits KV1.3 channels
effect on IP3-evoked Ca2+ release (IP3 receptors): Neither STX564 nor Synta66 affected IP3-evoked Ca^2+ release significantly; also recorded: did not inhibit the Ca^2+ release by IP3
